{"source": "patent US5665769A", "about": "“Pharmaceutical composition for preventing and treating retinal diseases” (Senju Pharmaceuticals Co., Ltd., priority 1993, dated 1997)", "test_system": "bovine retinal homogenate", "assay": "Ferrous chloride-induced peroxidation of bovine retinal homogenate in vitro, TBA value (Experiment 1 (A))", "assay_type": "biochemical", "conditions": "10^-4 M", "protocol": "(A) In vitro experiment using a bovine retinal homogenate:\nEffects of 2-O-octadecylascorbic acid on the peroxidation induced by adding ferrous chloride to a bovine retinal homogenate were examined.\n(1) Retinae were removed from bovine eyeballs (1/2 eye). Physiological saline was added to the retinae to prepare bovine retinal homogenates.\n(2) Ferrous chloride (0.5 mM, dissolved in distilled water) was added to each of the retinal homogenates obtained in the above. Further, 2-O-octadecylascorbic acid and α-tocopherol were added to the resulting homogenates to final concentrations of the reaction mixtures of 10^-4 M, respectively. Further, distilled water was added to each of the homogenates to adjust a total volume to 1 ml. 2-O-octadecylascorbic acid and α-tocopherol were dissolved and diluted with ethanol. Thus, the final concentrations of ethanol in all of the reaction mixtures were adjusted to 1%. Then, the mixtures were subjected to reaction at 37° C. for 1 hour.\n(3) 0.35% thiobarbituric acid (hereinafter referred to as TBA) reagent (50% aqueous acetic acid solution)(1 ml) was added to the reaction mixtures or standard solutions of the retinal homogenates obtained in the above (2). The mixtures were subjected to reaction in boiling water at 100° C. for 1 hour. After water cooling, n-butanol (2 ml) was added, and the mixtures were shaken for 5 minutes and centrifuged at 3000 rpm for 10 minutes. Fluorescence intensities (excitation wave length: 515 nm, emission wave length: 553 nm) were determined for the n-butanol layer. Proteins were determined using Bio-Rad Protein Assay Kit (trade name)."}
{"compound": "Cc1c(C)c2c(c(C)c1O)CCC(C)(CCCC(C)CCCC(C)CCCC(C)C)O2", "note": "(stereo not drawn) [α-Tocopherol, α-tocopherol, reference compound]", "values": [{"measurement": "Retina: TBA value", "setting": "0.5 mM ferrous chloride, 37° C., 1 hour, mean ± S.D., n=3, p < 0.001 vs control", "value": "2.38 ± 0.12 nM malondialdehyde/mg protein"}, {"measurement": "Inhibitory ratio", "setting": "ferrous chloride control = 0, blank = 100, 60 min", "value": 61.6, "unit": "%"}]}
